We go through eight molecules from patent US10844015B2, “Pyridine dicarboxamide derivatives as bromodomain inhibitors” (GlaxoSmithKline Intellectual Property (No. 2) Limited, priority 2016, dated 2020).

A value given as a limit tells only on which side of the number the result lay.

One assay has as its target T1, BRD4 BD2 (Homo sapiens, UniProt O60885, Y97A).
T1 construct: BRD4 (1-477) (Y97A) and (Y390A); made in house; host or cells: E. coli (pET15b vector)
The experiment in a line: BRD4 BD2 TR-FRET competition assay. Format: binding. As to conditions: single mutant tandem BRD4 protein; for IC50: read-out: pIC50 in the BRD4 BD2 assay (converted). How it is done:
Time Resolved Fluorescence Resonance Energy Transfer (TR-FRET) Assay
Bromodomain binding was assessed utilising a time resolved fluorescent resonance energy transfer (TR-FRET) competition assay. To enable this approach a known, high affinity, pan-BET interacting small molecule was labelled with Alexa Fluor® 647, which is a far-red-fluorescent dye (Reference Compound X). Reference Compound X acts as a reporter of bromodomain binding and is the acceptor fluorophore component of the TR-FRET pair. Europium chelate, conjugated to an anti-6*His antibody, was utilised as the donor fluorophore in the TR-FRET pair. […] A TR-FRET signal is generated when the donor and acceptor fluorophores are in close proximity, between 20-80 Å, which is enabled in this assay by binding of Reference Compound X to the bromodomain protein.
In order to generate a TR-FRET signal, donor fluorophore is excited by a laser at A337 nm, which subsequently leads to emission at A618 nm. If the acceptor fluorophore is in close proximity then energy transfer can occur, which leads to emission of Alexa Fluor® 647 at A665 nm. In the presence of competitor compound, Reference Compound X can be displaced from binding to the bromodomain. If displacement occurs, the acceptor fluorophore is no longer in proximity to the donor fluorophore, which prevents fluorescent energy transfer and, subsequently, a loss of Alexa Fluor® 647 emission at λ665 nm.
(§1) The competition of the compounds of formula (I) with Reference Compound X for binding to the BET family (BRD2, BRD3, BRD4 and BRDT) was assessed using protein truncates spanning both bromodomain 1 (BD1) and bromodomain 2 (BD2). In order to monitor differential binding to either BD1 or BD2, single residue mutations of key tyrosines to alanine were made in the acetyl lysine binding pockets. To validate this approach, a double residue mutant tandem domain protein was produced for each of the BET family members. Utilising a Fluorescence Polarisation approach, binding affinities for each of the single and double mutants for Reference Compound X were determined.
Final purification was completed by Superdex 200 prep grade size exclusion column. Purified protein was stored at −80° C. in 20 mM HEPES pH 7.5 and 100 mM NaCl.
Protocol for Bromodomain BRD2, 3, 4 and T, BD1+BD2 Mutant TR-FRET Competition Assays:
(§2) All assay components were dissolved in an assay buffer composing of 50 mM HEPES pH7.4, 50 mM NaCl, 5% Glycerol, 1 mM DTT and 1 mM CHAPS. […] The solution containing bromodomain and Reference Compound X was added to dose response dilutions of test compound or DMSO vehicle (a maximum of 0.5% DMSO is used in this assay) in Greiner 384 well black low volume microtitre plates and subsequently incubated for 30 minutes at room temperature. An equal volume of 3 nM of anti-6*His Europium chelate was added to all wells, followed by a further 30 minute incubation at room temperature. TR-FRET was detected using a Perkin Elmer Multimode plate reader, by exciting the donor fluorophore at λ337 nm and subsequently, after a delay of 50 μsecs, measuring emission of the donor and acceptor fluorophores at λ615 nm and λ665 nm, respectively. In order to control these assays, 16 replicates each of uninhibited (DMSO vehicle) and inhibited (10*IC50 concentrations of Example 11 of WO 2011/054846A1) TR-FRET assays were included on every microtitre plate.
cA four parameter curve fit of the following form was then applied: y=a+((b−a)/(1+(10^x/10^c)^d) • Where ‘a’ is the minimum, ‘b’ is the Hill slope, ‘c’ is the pIC50 and ‘d’ is the maximum.
(§3) All compounds (Examples) were each tested in the BRD4 BD1 and the BRD4 BD2 TR-FRET assays essentially as described above. Those of skill in the art will recognise that in vitro binding assays and cell-based assays for functional activity are subject to experimental variability. Accordingly, it is to be understood that the pIC50 values given below are exemplary only. pIC50 values are expressed as log10 units.
On the technique in general: TR-FRET usually uses a lanthanide donor and a delayed reading to cut background.

In another assay the test system is BRD4 BD2 over BRD4 BD1. Kind of assay: Calculation of selectivity for BRD4 BD2 over BRD4 BD1 from the TR-FRET assays. Format: binding, Human. Particulars: for fold selective for BRD4 BD2 over BRD4 BD1: stated from the log unit selectivity; for selectivity for BRD4 BD2 over BRD4 BD1: BRD4 BD2 pIC50 − BRD4 BD1 pIC50, in at least one of the TR-FRET assays. How it is done:
as §1, §2, §3
Calculation of Selectivity for BRD4 BD2 Over BRD4 BD1
Selectivity for BRD4 BD2 over BRD4 BD1 was calculated as follows: Selectivity=BRD4BD2pIC50−BRD4BD1pIC50

For assay [1], the system named is BET family (BRD2, BRD3, BRD4 and BRDT) tandem bromodomain proteins. The experiment in a line: Fluorescence Polarisation binding affinities of single and double mutant tandem BET proteins for Reference Compound X. Details: species or system Human. The method, then:
as §1, with “determined. […] The affinities of the single mutated bromdomain tandem proteins for Reference Compound X were equi-potent with the corresponding non-mutated BET protein. […] In the TR-FRET competition assay, Reference Compound X is used at a concentration that is equivalent to the Kd for the non-mutated bromodomain, which ensures that no binding at the mutated bromodomain is detected.” for “determined.”
Recombinant Human Bromodomains [(BRD2 (1-473) (Y113A) and (Y386A), BRD3 (1-435) (Y73A) and (Y348A) BRD4 (1-477) (Y97A) and (Y390A) and BRDT (1-397) (Y66A) and (Y309A)] were expressed in E. coli cells (in pET15b vector for BRD2/3/4 and in pET28a vector for BRDT) with a 6-His tag at the N-terminal. The His-tagged Bromodomain pellet was resuspended in 50 mM HEPES (pH7.5), 300 mM NaCl, 10 mM imidazole & 1 μL/mL protease inhibitor cocktail and extracted from the E. coli cells using sonication and purified using a nickel sepharose high performance column, the proteins were washed and then eluted with a linear gradient of 0-500 mM imidazole with buffer 50 mM HEPES (pH7.5), 150 mM NaCl, 500 mM imidazole, over 20 column volumes. Final purification was completed by Superdex 200 prep grade size exclusion column. Purified protein was stored at −80° C. in 20 mM HEPES pH 7.5 and 100 mM NaCl. Protein identity was confirmed by peptide mass fingerprinting and predicted molecular weight confirmed by mass spectrometry.
(Fluorescence polarisation rises when a labelled molecule tumbles more slowly, as on binding a larger partner.)

Turning to `CNC(=O)c1cc(C(=O)N[C@H]2C[C@@H]2C)cc(C(OC)c2ccnc3[nH]ccc23)n1` (relative stereo) [Example 106, 6-((R*-Methoxy(1H-pyrrolo[2,3-b]pyridin-4-yl)methyl)-N^2 methyl-N^4-((1S,2S)-2-methylcyclopropyl)pyridine-2,4-dicarboxamide], on BRD4 BD2, the “pIC50 in the BRD4 BD2 assay” value is on record as 7.6 log10 units. Moreover, the “fold selective for BRD4 BD2 over BRD4 BD1” value (from here on “fold selective for BRD4 BD2”) with BRD4 BD2 over BRD4 BD1 is given as “at least 1000 fold”.

For `CNC(=O)c1cc(C(=O)NC2CC2)cc([C@@H](O)c2ccccc2C)n1` (single isomer, unassigned) [Example 116, (S*)-N^4-cyclopropyl-6-(hydroxy(o-tolyl)methyl)-N^2-methylpyridine-2,4-dicarboxamide], at BRD4 BD2, the IC50 was 1000 to 10000 nM.

As for `CNC(=O)c1cc(C(=O)N[C@H]2C[C@@H]2C)cc(Cc2cncc3[nH]ccc23)n1` [Example 46, 6-((1H-Pyrrolo[2,3-c]pyridin-4-yl)methyl)-N^2-methyl-N^4-((1S,2S)-2-methylcyclopropyl)pyridine-2,4-dicarboxamide], at BRD4 BD2, the IC50 was 79.4 nM. Besides, in the assay with BRD4 BD2 over BRD4 BD1, the “selectivity for BRD4 BD2 over BRD4 BD1” value is 2.8 log unit and the “fold selective for BRD4 BD2” value is on record as “at least 100 fold”.

Consider `CNC(=O)c1cc(C(=O)NC2CC2C)cc(C(C)c2cncc3[nH]ccc23)n1` [Example 49, 6-((S*-1-(1H-Pyrrolo[2,3-c]pyridin-4-yl)ethyl)-N^2-methyl-N^4 ((1S,2S)-2-methylcyclopropyl)pyridine-2,4-dicarboxamide], for which the IC50 at BRD4 BD2 was 12.6 nM. Besides, in the assay with BRD4 BD2 over BRD4 BD1, the “selectivity for BRD4 BD2 over BRD4 BD1” value is 2.8 log unit and the “fold selective for BRD4 BD2” value was “at least 100 fold”.

In the case of `CNC(=O)c1cc(C(=O)N[C@H]2C[C@@H]2C)cc(Cn2ccccc2=O)n1` [Example 54, N^2-Methyl-N^4-((1S,2S)-2-methylcyclopropyl)-6-((2-oxopyridin-1(2H)-yl)methyl)pyridine-2,4-dicarboxamide], on BRD4 BD2, the IC50 was 1000 to 10000 nM.

Regarding `CNC(=O)c1cc(C(=O)N[C@H]2C[C@@H]2C)cc(Cc2ccnc3[nH]ccc23)n1` [Example 80, 6-((1H-Pyrrolo[2,3-b]pyridin-4-yl)methyl)-N^2-methyl-N^4-((1S,2S)-2-methylcyclopropyl)pyridine-2,4-dicarboxamide], the IC50 at BRD4 BD2 was 39.8 nM. In addition, the “fold selective for BRD4 BD2” value in the assay with BRD4 BD2 over BRD4 BD1 is “at least 1000 fold”.

For the molecule `CNC(=O)c1cc(C(=O)N[C@H]2C[C@@H]2C)cc(Cc2cccc3c2CCN3)n1` [Example 83, 6-(indolin-4-ylmethyl)-N^2-methyl-N^4-((1S,2S)-2-methylcyclopropyl)pyridine-2,4-dicarboxamide], the IC50 at BRD4 BD2 is 31.6 nM. Moreover, in the assay on BRD4 BD2 over BRD4 BD1, the “selectivity for BRD4 BD2 over BRD4 BD1” value is 2.9 log unit and the “fold selective for BRD4 BD2” value is “at least 100 fold”.

As for `COc1ccc2c(c1)C(c1ccc(Cl)cc1)=N[C@@H](CC(=O)NCCCCCNC(=O)CCCCCC1(C)/C(=C/C=C/C=C/C3=[N+](CCCCS(=O)(=O)O)c4ccc(S(=O)(=O)O)cc4C3(C)C)N(CCCCS(=O)(=O)[O-])c3ccc(S(=O)(=O)O)cc31)c1nnc(C)n1-2` (stereo partly drawn) [Reference Compound X], in assay [1] (double residue (Tyr to Ala) mutant tandem domain proteins), the “reduction in Kd (affinity) of double mutant tandem proteins in comparison to wild type tandem BET proteins” value is given as over 1000 fold. In assay [1] (single mutation of Tyrosine to Alanine), the “reduction of Kd of the interaction between the mutated bromodomain and Reference Compound X” value is over 1000 fold. The “affinity of single mutated bromodomain tandem proteins versus corresponding non-mutated BET protein” value in assay [1] (single residue (Tyr to Ala) mutants) is recorded as “equi-potent”.
